Test results taken from patent EP0291696A2, “Process of multiplication of epithelial cells” (Battelle-Institut e.V., priority 1987, dated 1988).

Experiments:
Keratinozyten [1] = experiment: Keratinocyte culture: cell count after 12 days and days to confluence (Beispiel 2); format: cell-based, human
Keratinozyten [2] = experiment: Keratinocyte culture with FCS or Nu-Serum: cell count after 12 days and days to confluence (Beispiel 3); format: cell-based, human
Description: Kerationozyten wurden durch Trypsinierung von Haut nach der Methode von M. Green (Green, M. et al, PNAS 76 (1979) 5665) gewonnen und in einer Zelldichte von 2,5 x 10 ⁴ Zellen/cm² ausgesät. Die Hautproben in den Beispielen 1, 2 und 3 stammten von Patienten die zwischen 30 und 40 Jahre alt waren. Zusätzlich wurden die Kulturen mit 2 x 10 ⁴ Zellen/cm² letal bestrahlter 3T3-Fibroblasten inokuliert, beschrieben im US-Patent 4,016,036.
Als Medium diente eine Mischung aus DMEM und HAM's F 12 (3:1) mit folgenden Zusätzen: Hydrocortison 0,4 ug/ml Insulin 5 ug/ml Triiodo-Thyronin 2x10⁻⁹M Transferrin 5 ug/ml Adenin 8 x 10⁻⁴ M Gentamycin, Penicillin, Streptomycin je 50 ug/ml Fötales Kälberserum 10 % EGF (nach 2 Tagen) 10 ng/ml
In diesem Experiment, das wie unter Beispiel 1 beschrieben durchgeführt wurde, wurden verschiedene Forskolinkonzentrationen unter Verwendung bzw. in Vergleich von 10 % fötalem Kälberserum (FCS) und einem synthetischen Serum der Firma Biomedica Wien (Nu-Serum Nr. 1) untersucht.

Structure (SMILES): C=C[C@@]1(C)CC(=O)[C@]2(O)[C@@]3(C)[C@@H](O)CCC(C)(C)[C@@H]3[C@H](O)[C@H](OC(C)=O)[C@@]2(C)O1 [Forskolin]
- Anzahl der Tage bis zur Konfluenz (Keratinozyten [1]; 5x10^-5M): 18 Tage
- Zellzahl nach 12 Tagen in einer 25cm^2 Kultur-schale (Keratinozyten [1]; 5x10^-5M): 13 x 10^5
- Anzahl der Tage bis zur Konfluenz (Keratinozyten [1]; 5x10^-6M): 14 Tage
- Zellzahl nach 12 Tagen in einer 25cm^2 Kultur-schale (Keratinozyten [1]; 5x10^-6M): 23 x 10^5
- Anzahl der Tage bis zur Konfluenz (Keratinozyten [1]; 10^-5M): 14 Tage
- Zellzahl nach 12 Tagen in einer 25cm^2 Kultur-schale (Keratinozyten [1]; 10^-5M): 25 x 10^5
- Anzahl der Tage bis zur Konfluenz (Keratinozyten [1]; 10^-6M): 18 Tage
- Zellzahl nach 12 Tagen in einer 25cm^2 Kultur-schale (Keratinozyten [1]; 10^-6M): 12 x 10^5
- Anzahl der Tage bis zur Konfluenz (Keratinozyten [1]; 10^-7M): 24 Tage
- Zellzahl nach 12 Tagen in einer 25cm^2 Kultur-schale (Keratinozyten [1]; 10^-7M): 8 x 10^5
- Zellzahl nach 12 Tagen in einer 25cm^2 Kultur-schale (Keratinozyten [1]; 10^-8M): 2,5 x 10^5
- Reduction of the Zeit bis zum Erreichen einer konfluenten Keratinozytenkultur im Vergleich zu Cholera Toxin (Keratinozyten [1]; Forskolin 5 x 10⁻⁶ bzw. 10⁻⁵ in the medium): ≤ 40%
- Anzahl der Tage bis zur Konfluenz (Keratinozyten [2]; FCS, 5x10^-5M): 18 Tage
- Zellzahl nach 12 Tagen in einer 25cm^2 Kultur-schale (Keratinozyten [2]; FCS, 5x10^-5M): 16 x 10^5
- Anzahl der Tage bis zur Konfluenz (Keratinozyten [2]; FCS, 5x10^-6M): 15 Tage
- Zellzahl nach 12 Tagen in einer 25cm^2 Kultur-schale (Keratinozyten [2]; FCS, 5x10^-6M): 24 x 10^5
- Anzahl der Tage bis zur Konfluenz (Keratinozyten [2]; FCS, 10^-5M): 14 Tage
- Zellzahl nach 12 Tagen in einer 25cm^2 Kultur-schale (Keratinozyten [2]; FCS, 10^-5M): 32 x 10^5
- Anzahl der Tage bis zur Konfluenz (Keratinozyten [2]; FCS, 10^-6M): 20 Tage
- Zellzahl nach 12 Tagen in einer 25cm^2 Kultur-schale (Keratinozyten [2]; FCS, 10^-6M): 14 x 10^5
- Anzahl der Tage bis zur Konfluenz (Keratinozyten [2]; Nu-Serum, 5x10^-5M): 18 Tage
- Zellzahl nach 12 Tagen in einer 25cm^2 Kultur-schale (Keratinozyten [2]; Nu-Serum, 5x10^-5M): 13 x 10^5
- Anzahl der Tage bis zur Konfluenz (Keratinozyten [2]; Nu-Serum, 5x10^-6M): 16 Tage
- Zellzahl nach 12 Tagen in einer 25cm^2 Kultur-schale (Keratinozyten [2]; Nu-Serum, 5x10^-6M): 25 x 10^5
- Anzahl der Tage bis zur Konfluenz (Keratinozyten [2]; Nu-Serum, 10^-5M): 15 Tage
- Zellzahl nach 12 Tagen in einer 25cm^2 Kultur-schale (Keratinozyten [2]; Nu-Serum, 10^-5M): 27 x 10^5
- Anzahl der Tage bis zur Konfluenz (Keratinozyten [2]; Nu-Serum, 10^-6M): 20 Tage
- Zellzahl nach 12 Tagen in einer 25cm^2 Kultur-schale (Keratinozyten [2]; Nu-Serum, 10^-6M): 14 x 10^5
